{"source": "patent US20090110701A1", "about": "“T-CELL MODULATION” (THE UNIVERSITY COURT OF THE UNIVERSITY OF ABERDEEN, priority 2004, published 2009)", "type_in_all_cases": "cell-based, human", "key": {"[1]": {"test_system": "PBMC", "assay": "sCTLA-4 secretion ELISA, PBMC from healthy adult donors"}, "[2]": {"test_system": "PBMC", "assay": "Cytokine secretion ELISA (IFN-γ, IL-10, IL-4) of PBMC cultures", "details": "FIG. 5a", "protocol": "(§1) Cytokine Secretion ELISA. ELISA were based on previously published methods and were performed from 3-7 days of in vitro cell culture. The following antibody pairs were used: purified mouse anti-IFN-γ (clone NIB42) and biotinylated mouse anti-IFN-γ (clone 4S.B3); purified mouse anti-IL-10 (clone JES3-19F1) and biotinylated mouse anti-IL-10 (clone JES3-12G8); purified mouse anti-IL-4 (clone 8D4-8) and biotinylated mouse anti-IL-4 (clone MP4-25D2) (all from BD Biosciences, Oxford, UK). All recombinant human cytokines (IFN-γ, IL-4, and IL-10) were purchased from Peprotech EC Ltd. (London, UK)."}, "[3]": {"test_system": "PBMC", "assay": "Proliferation assay (3H thymidine incorporation) of PBMC", "details": "FIG. 5a", "protocol": "Proliferation Assay. Cell proliferation was assessed by the incorporation of ^3H thymidine, as previously described."}, "[4]": {"test_system": "Lymphocytes from patients with autoimmune haemolytic anaemia", "assay": "Peptide mapping assay for sCTLA-4 production (RhD peptides)", "details": "1 million lymphocytes per peptide, five days at 37° C., seven AIHA patients, FIG. 9", "protocol": "Peptide mapping experiments to identify peptides which stimulate sCTLA-4 production were performed as follows. Each peptide (1 to 42) was derived from the RhD autoantigen. Lymphocytes (1 million per peptide) from patients with autoimmune haemolytic anaemia were added to individual peptides and incubated for five days at 37° C. At the end of this period the cell cultures were assessed for an increase in sCTLA-4 production. In these assays a stimulation index of 2 is considered a positive result (twice as much sCTLA-4 detected compared with non-stimulated control).\nCertain peptides in some cases stimulated sCTLA-4 production by three, four or even ten times higher than non-stimulated cells alone."}, "[5]": {"test_system": "PBMC from patients with AIHA", "assay": "sCTLA-4 and IL-4 secretion by PBMC from AIHA patients incubated with RhD", "details": "one patient from an initial sample of six, FIG. 3", "protocol": "FIG. 3. Differential stimulation of sCTLA-4 secretion by PBMC sampled from AIHA patients in response to incubation with RhD protein antigen.\nas §1\nWe also developed a similar secretion ELISA for sCTLA-4 with antibodies identified previously. Briefly, sCTLA-4 was measured in vitro by incubating a capture anti-CTLA-4 antibody (clone: BNI3 2μg ml^−1) in 96 well Nunc Maxisorp plates for 2 hours at 37° C. Plates were washed and blocked with 3% BSA before the addition of test cell culture suspension. […] Developed plates were measured with a Multiskan MS microplate photometer (Life and Laboratory Sciences, Basingstoke, UK) at an absorbance of 405 nm. […]"}}}
{"molecule": "anti-CD3 antibody: Stimulatory anti-CD3 antibody (clone OKT3) purified from hybridoma cell culture supernatants", "values": [{"measurement": "sCTLA-4 levels compared with non-stimulated PBMC, all individuals analyzed", "setting": "[1]; 12 healthy individuals, FIG. 5b, P<0.01 Wilcoxon for PPD, anti-CD3 data not shown", "result": "invariably reduced"}, {"measurement": "sCTLA-4 levels in vitro compared with non-stimulated PBMC", "setting": "[1]; individual donor profile, FIG. 5a, 5 days, 37° C., stimulus 5 μg ml−1", "result": "dramatically reduced"}, {"measurement": "IFN-γ secretion, PPD versus anti-CD3 cultures", "setting": "[2]", "result": "similar"}, {"measurement": "IL-10 secretion, anti-CD3 compared with PPD", "setting": "[2]", "result": "increase"}, {"measurement": "Proliferation, PPD versus anti-CD3 cultures", "setting": "[3]", "result": "similar"}]}
{"molecule": "SSKYPRSVRRCLPLW [Peptide 1, peptide derived from the RhD autoantigen, residues 2-16]", "values": [{"measurement": "stimulation of sCTLA-4 production (stimulation index versus non-stimulated control; 2 is positive)", "setting": "[4]", "result": "particularly effective"}]}
{"molecule": "RhD autoantigen: AIHA-associated autoantigen RhD protein (protein, UniProt Q02161 2-417, looked up) Blood group Rh(D) polypeptide: SSKYPRSVRRCLPLWALTLEAALILLFYFFTHYDASLEDQKGLVASYQVGQDLTVMAAIGLGFLTSSFRRHSWSSVAFNLFMLALGVQWAILLDGFLSQFPSGKVVITLFSIRLATMSALSVLISVDAVLGKVNLAQLVVMVLVEVTALGNLRMVISNIFNTDYHMNMMHIYVFAAYFGLSVAWCLPKPLPEGTEDKDQTATIPSLSAMLGALFLWMFWPSFNSALLRSPIERKNAVFNTYYAVAVSVVTAISGSSLAHPQGKISKTYVHSAVLAGGVAVGTSCHLIPSPWLAMVLGLVAGLISVGGAKYLPGCCNRVLGIPHSSIMGYNFSLLGLLGEIIYIVLLVLDTVGAGNGMIGFQVLLSIGELSLAIVIALMSGLLTGLLLNLKIWKAPHEAKYFDDQVFWKFPHLAVGF", "values": [{"measurement": "IL-4 secretion compared with negative controls", "setting": "[5]", "result": "higher levels"}, {"measurement": "sCTLA-4 secretion compared with negative controls", "setting": "[5]", "result": "higher levels"}]}
